Test results published in patent US9371265B2, “Compositions and methods related to inhibitors of JAK kinase” (EP PHARMA, INC., priority 2012, dated 2016).
Values joined by “and” are separate entries in the source; they are usually repeats but may differ in a detail not shown here. Equal values may be shown once.

Assays:
CD30 = CD30 cell surface expression in SU-DHL-1 cells (flow cytometry); assay type: cell-based, human; conditions: 24 hours
From the text: FIGS. 6A-6B. EP009 treatment disrupts constitutive JAK3/STAT3 pathway activation and down-regulates CD30 cell surface expression in human ALCL cells. (A) Kit225 (lane a), SUP-M2 (lane b), Karpas299 (lane c), DEL (lane d) and SU-DHL-1 (lane e) total cell lysates were separated by 7.5% SDS-PAGE (upper panel) or were immunoprecipitated (IP) with JAK3 antibodies (lower panel) and separated on 7.5% SDS-PAGE, and then subjected to Western blot (WB) analysis with the indicated antibodies. (B) SU-DHL-1 cells were treated with vehicle (PBS; lane a) or increasing amounts of EP009 (0-40 μM; lanes b-e) for 12 hours. Cells were then lysed, clarified, and immunoprecipitated (IP) with anti-JAK3 (α-JAK3), and subjected to Western blot (WB) analysis with anti-phosphotyrosine (α-pY). […] Values represent pSTAT mean fluorescence intensity (MFI) normalized to corresponding GAPDH MFI, while error bars represent the standard deviation (n=2). Statistical significance was determined using Student's t-test. […] Cells were then analyzed by flow cytometry for CD30 expression. […]
Cells were treated in the absence or presence of the indicated concentrations of EP009 for 24 hours, and stained with FITC-labeled mouse anti-human CD30 (Millipore). Stained cells were analyzed by flow cytometry (Cytomics FC500, Beckman Coulter) and quantitated with CXP analysis software version 2.2 (Beckman Coulter) as previously described.24

[1] = Oral pharmacokinetics in rats (plasma, LC-MS/MS); assay type: in vivo, Sprague Dawley rats; conditions: single oral dose of 200 mg/kg
Method: FIGS. 9A-9B Pharmacokinetics and efficacy of EP009 in vivo. (A) Sprague Dawley rats were administered EP009 by oral gavage (200 mg/kg) and pharmacokinetics measured by analysis of plasma concentrations at indicated time points. Values represent mean concentrations, while error bars represent the standard deviation (n=5). (B) Therapeutic study of EP009 in SU-DHL-1 model in SCID/NOD mice.
EP009 (200 mg/kg) was administered orally to Sprague Dawley rats (Texas Animal Specialties) of ˜200 g weight (n=5) after an overnight fast. Blood (˜200 μl) was drawn at 0.5, 1, 2, 4, 8 and 24 hours after dosing and plasma was collected and snap-frozen in liquid nitrogen. EP009 plasma concentrations were determined by a liquid chromatography tandem mass spectrometry (LC-MS/MS) system. This system included a HPLC (Shimadzu Scientific Corporation) with an ACE C18 column (50×2.1 mm, 5 um) and an API-4000 (triple-quadruple) mass spectrometer (ABSciex, Inc) with an electrospray ionization source. A positive multiple reaction monitoring (MRM) scan was applied. The mobile phase A and B used in this study were 0.1% formic acid in 5 mM ammonium acetate and 0.1% formic acid in 100% acetonitrile. Plasma samples (50 μL) were mixed with 50 μL of blank plasma and 300 μL of internal standard solution (Verapamil, 20 ng/mL in 100% acetonitrile). After vortexing for 1 min and centrifuging for 5 min at 16,000×g, 300 μL supernatants were analyzed by LC-MS/MS. The limit of quantitation was 1 ng/mL of EP009 in plasma and the calibration range was from 1 to 2000 ng/mL.

CSNK1G2 = CSNK1G2 (Homo sapiens, UniProt P78368); test: Kinase panel: CSNK1G2; assay type: biochemical; conditions: 10 μM EP009
Chain of CSNK1G2 (P78368 whole entry): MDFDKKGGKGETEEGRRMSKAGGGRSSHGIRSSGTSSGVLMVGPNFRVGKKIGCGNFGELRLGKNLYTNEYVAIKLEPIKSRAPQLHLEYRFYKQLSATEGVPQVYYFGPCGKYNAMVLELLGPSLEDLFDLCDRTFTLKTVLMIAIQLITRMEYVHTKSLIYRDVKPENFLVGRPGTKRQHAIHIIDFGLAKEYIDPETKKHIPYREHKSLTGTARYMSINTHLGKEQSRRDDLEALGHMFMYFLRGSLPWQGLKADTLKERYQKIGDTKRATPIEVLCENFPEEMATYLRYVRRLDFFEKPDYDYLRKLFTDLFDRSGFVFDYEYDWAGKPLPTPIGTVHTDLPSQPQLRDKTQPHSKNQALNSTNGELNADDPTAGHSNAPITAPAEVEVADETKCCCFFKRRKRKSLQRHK
Method: (§1) Achieving JAK3 selectivity remains a significant challenge in the development of new small molecules for the treatment of cancer and immune-derived diseases. As such, the inventors employed cell-based screening assays of small-molecule libraries based upon the chemical scaffold of the established JAK3 inhibitor NC1153 (Stepkowski et al., J Immunol. (2005), 175(7):4236-4246) EP009 (FIG. 2A) was selected as a lead compound due to improved intrinsic stability (>95% purity in various solvents at 37° C. for 24 hours; FIG. 3) and high-degree of JAK3 selectivity. To test JAK3 versus JAK2 specificity of EP009, the IL-2/JAK3-dependent Kit225, and IL-3/JAK2-dependent BaF/3 cell lines were used. Kit225 and BaF/3 cells growing in the presence of IL-2 or IL-3, respectively, were treated with ascending concentrations of EP009 for 12 hours and cellular JAK3 and JAK2 tyrosine phosphorylation levels detected by Western blot analysis (FIGS. 2B and 2C). Following densitometric analysis, EP009 was determined to dose-dependently reduce IL-2-mediated JAK3 tyrosine phosphorylation with a cellular 50% inhibitory concentration (IC50) between 10 and 20 μM (FIG. 2B). […] To globally evaluate specificity, the inhibitory activity of EP009 was measured against a panel of protein kinases distributed throughout the kinome using the scanEDGE profiling service (KINOMEscan). […]

JNK3 = JNK3 (Homo sapiens, UniProt P53779); test: Kinase panel: JNK3; assay type: biochemical; conditions: 10 μM EP009
Chain of JNK3 (P53779 whole entry): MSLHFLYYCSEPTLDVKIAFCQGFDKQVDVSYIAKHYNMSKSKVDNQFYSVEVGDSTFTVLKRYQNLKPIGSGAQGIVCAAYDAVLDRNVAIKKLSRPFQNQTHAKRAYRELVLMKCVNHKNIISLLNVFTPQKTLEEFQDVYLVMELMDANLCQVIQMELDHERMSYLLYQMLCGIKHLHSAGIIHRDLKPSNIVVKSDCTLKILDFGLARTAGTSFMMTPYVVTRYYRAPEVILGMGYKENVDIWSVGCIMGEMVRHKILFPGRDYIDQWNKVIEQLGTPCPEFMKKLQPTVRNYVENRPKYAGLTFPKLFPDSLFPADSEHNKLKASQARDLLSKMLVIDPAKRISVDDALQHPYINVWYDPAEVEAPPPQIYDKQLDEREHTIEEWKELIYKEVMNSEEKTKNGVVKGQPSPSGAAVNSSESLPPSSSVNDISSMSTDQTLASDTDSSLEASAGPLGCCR
Method: as §1

MAPKAPK2 = MAPKAPK2 (Homo sapiens, UniProt P49137); test: Kinase panel: MAPKAPK2; assay type: biochemical; conditions: 10 μM EP009
Chain of MAPKAPK2 (P49137 whole entry): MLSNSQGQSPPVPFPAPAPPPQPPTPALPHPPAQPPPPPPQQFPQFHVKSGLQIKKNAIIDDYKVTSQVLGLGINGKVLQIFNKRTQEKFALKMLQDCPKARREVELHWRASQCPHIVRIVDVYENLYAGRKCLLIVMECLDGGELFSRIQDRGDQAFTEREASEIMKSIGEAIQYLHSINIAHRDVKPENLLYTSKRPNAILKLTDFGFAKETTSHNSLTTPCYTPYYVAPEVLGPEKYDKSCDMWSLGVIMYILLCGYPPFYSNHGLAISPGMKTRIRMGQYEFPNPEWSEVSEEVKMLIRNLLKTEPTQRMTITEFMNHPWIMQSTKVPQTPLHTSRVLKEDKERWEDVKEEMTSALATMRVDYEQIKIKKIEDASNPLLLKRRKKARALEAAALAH
Method: as §1

SRC = SRC (Homo sapiens, UniProt P12931); test: Kinase panel: SRC; assay type: biochemical; conditions: 10 μM EP009
Chain of SRC (P12931 whole entry): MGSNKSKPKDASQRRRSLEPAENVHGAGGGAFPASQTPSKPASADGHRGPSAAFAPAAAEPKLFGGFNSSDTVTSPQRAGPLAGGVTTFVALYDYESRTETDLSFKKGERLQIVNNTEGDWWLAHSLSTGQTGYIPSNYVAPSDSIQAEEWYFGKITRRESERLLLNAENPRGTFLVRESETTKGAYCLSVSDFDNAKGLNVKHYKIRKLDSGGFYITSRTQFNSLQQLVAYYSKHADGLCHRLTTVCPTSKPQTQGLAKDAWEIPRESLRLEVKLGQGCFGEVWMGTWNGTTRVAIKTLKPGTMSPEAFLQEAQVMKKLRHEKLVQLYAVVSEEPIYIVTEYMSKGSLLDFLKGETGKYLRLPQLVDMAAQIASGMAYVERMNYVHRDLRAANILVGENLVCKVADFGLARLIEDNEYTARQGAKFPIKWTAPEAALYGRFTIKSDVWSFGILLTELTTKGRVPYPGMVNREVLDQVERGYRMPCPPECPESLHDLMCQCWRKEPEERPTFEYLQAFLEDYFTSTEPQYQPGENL
Method: as §1

Compound: C=C1CCCCCCCCCC(CO)C1=O (stereo not drawn) [EP009, 2-(Hydroxymethyl)-12-methylenecyclododecanone]
- effect on CD30 surface expression (CD30): dose-dependent CD30 down-regulation
- AUC(0-t) ([1]; Sprague Dawley, rat, plasma, read-out: area under the concentration-time curve (AUC-t)): 2110 ng·h/mL and 6.1 µM·h
- half-life ([1]; Sprague Dawley, rat, plasma, read-out: half-life (t1/2) (converted)): 60 min
- Cmax ([1]; Sprague Dawley, rat, plasma, read-out: peak plasma concentration (Cmax)): 2000 ng/mL and 5.74 µM
- plasma levels eight hours after dosing [1]: declined to the limit of detection
- Kinase Activity (% of Control) (CSNK1G2): 100 % of Control
- Kinase Activity (% of Control) (JNK3): 100 % of Control
- Kinase Activity (% of Control) (MAPKAPK2): 100 % of Control
- Kinase Activity (% of Control) (SRC): 100 % of Control
